Measurements: patent US10294246B2, “Substituted boronic acids and boronate esters as immunoproteasome inhibitors” (MERCK PATENT GMBH, priority 2014, dated 2019)

Experiments:
[1] = target: human constitutive proteasome (Beta5) (Homo sapiens (Human), UniProt P28074); experiment: Determination of Beta5 activity (fluorescence intensity assay, Suc-LLVY-AMC); assay type: biochemical; conditions: purified human constitutive proteasome 1.25 nM, Suc-LLVY-AMC 40 μM
Procedure: Determination of Beta5 Activity:
Measurement of Beta5 inhibition is performed in 384 well format based on fluorescence intensity assay.
(§1) Purified human constitutive proteasome (1.25 nM) and serial diluted compounds in DMSO (range of concentrations from 30 μM to […]) or controls are incubated for 20 minutes at 25° C. in assay buffer containing 50 mM Tris pH 7.4, 0.03% SDS, 1 mM EDTA and 1% DMSO. The reaction is initiated by the addition of the fluorogenic peptide substrate, Suc-LLVY-AMC (Bachem 1-1395), at a concentration of 40 μM. After 60 minutes of incubation at 37° C., fluorescence intensity is measured at λex=350 nm and λem=450 nm with a fluorescence reader (Perkin Elmer Envision reader or equivalent).

[2] = target: human immunoproteasome (LMP7) (Homo sapiens (Human), UniProt P28062); experiment: Determination of LMP7 activity (fluorescence intensity assay, Suc-LLVY-AMC); assay type: biochemical; conditions: for Selectivity LMP7 vs Beta5: LMP7 versus Beta5; for IC50: purified human immunoproteasome 0.25 nM, Suc-LLVY-AMC 40 μM
Procedure: Determination of LMP7 Activity:
Measurement of LMP7 inhibition is performed in 384 well format based on fluorescence intensity assay.
as §1, with “immunoproteasome (0.25” for “constitutive proteasome (1.25”

Row | IC50 [1] | Selectivity LMP7 vs Beta5 [2] | IC50 [2] | Compound
1 | 50 to 500 nM | ++ (10 ≤ Selectivity < 50) | < 50 nM | O=C(COc1ncc(Cl)cc1Cl)N[C@@H](Cc1ccccc1)B(O)O [Compound No. 1, [(1R)-1-[[2-[(3,5-dichloro-2-pyridyl)oxy]acetyl]amino]-2-phenyl-ethyl]boronic acid]
2 | 500 to 5000 nM | ++ (10 ≤ Selectivity < 50) | 50 to 500 nM | O=C(COc1ccccn1)N[C@@H](Cc1ccccc1)B(O)O [Compound No. 2, [(1R)-2-phenyl-1-[[2-(2-pyridyloxy)acetyl]amino]ethyl]boronic acid]
3 | 50 to 500 nM | ++ (10 ≤ Selectivity < 50) | < 50 nM | O=C(COc1ccccc1)N[C@@H](Cc1ccccc1)B(O)O [Compound No. 3, [(1R)-1-[(2-phenoxyacetyl)amino]-2-phenyl-ethyl]boronic acid]
4 | 50 to 500 nM | ++ (10 ≤ Selectivity < 50) | < 50 nM | Cc1ccc(C[C@H](NC(=O)CCOc2ccccc2)B(O)O)cc1 [Compound No. 4, [(1R)-1-(3-phenoxypropanoylamino)-2-(p-tolyl)ethyl]boronic acid]
5 | 50 to 500 nM | ++ (10 ≤ Selectivity < 50) | < 50 nM | COc1ccc(OCCC(=O)N[C@@H](Cc2ccc(C)cc2)B(O)O)cc1 [Compound No. 5, [(1R)-1-[3-(4-methoxyphenoxy)propanoylamino]-2-(p-tolyl)ethyl]boronic acid]
6 | 50 to 500 nM | +++++ (Selectivity ≥ 100) | < 50 nM | O=C(Cc1ccccc1)N[C@@H](Cc1coc2ccccc12)B(O)O [Compound No. 6, [(1R)-2-(benzofuran-3-yl)-1-[(2-phenylacetyl)amino]ethyl]boronic acid]
7 | – | +++ (50 ≤ Selectivity < 70) | – | Cc1ccc(OCCC(=O)N[C@@H](Cc2coc3ccccc23)B(O)O)cc1 [Compound No. 7, [(1R)-2-(benzofuran-3-yl)-1-[3-(4-methylphenoxy)propanoylamino]-ethyl]boronic acid]
8 | 50 to 500 nM | +++ (50 ≤ Selectivity < 70) | < 50 nM | O=C(Cc1cccnc1)N[C@@H](Cc1coc2ccccc12)B(O)O [Compound No. 8, [(1R)-2-(benzofuran-3-yl)-1-[[2-(3-pyridyl)acetyl]amino]ethyl]boronic acid]
9 | 50 to 500 nM | ++++ (70 ≤ Selectivity < 100) | < 50 nM | N#Cc1ccc(CC(=O)N[C@@H](Cc2coc3ccccc23)B(O)O)cc1 [Compound No. 9, [(1R)-2-(benzofuran-3-yl)-1-[[2-(4-cyanophenyl)acetyl]amino]ethyl]-boronic acid]
10 | 50 to 500 nM | ++++ (70 ≤ Selectivity < 100) | < 50 nM | COc1ccc(CC(=O)N[C@@H](Cc2coc3ccccc23)B(O)O)cc1 [Compound No. 10, [(1R)-2-(benzofuran-3-yl)-1-[[2-(4-methoxyphenyl)acetyl]amino]ethyl]-boronic acid]
11 | 50 to 500 nM | ++ (10 ≤ Selectivity < 50) | < 50 nM | O=C(COc1cccnc1)N[C@@H](Cc1coc2ccccc12)B(O)O [Compound No. 11, [(1R)-2-(benzofuran-3-yl)-1-[[2-(3-pyridyloxy)acetyl]amino]ethyl]-boronic acid]
12 | 50 to 500 nM | +++ (50 ≤ Selectivity < 70) | < 50 nM | COc1cccc(CC(=O)N[C@@H](Cc2coc3ccccc23)B(O)O)n1 [Compound No. 12, [(1R)-2-(benzofuran-3-yl)-1-[[2-(6-methoxy-2-pyridyl)acetyl]amino]-ethyl]boronic acid]
13 | 50 to 500 nM | +++++ (Selectivity ≥ 100) | < 50 nM | CCOc1ccc(CC(=O)N[C@@H](Cc2coc3ccccc23)B(O)O)nc1 [Compound No. 13, [(1R)-2-(benzofuran-3-yl)-1-[[2-(5-ethoxy-2-pyridyl)acetyl]amino]-ethyl]boronic acid]
14 | 500 to 5000 nM | +++ (50 ≤ Selectivity < 70) | 50 to 500 nM | Cc1ccc(C[C@H](NC(=O)Cc2ccccc2)B(O)O)cc1 [Compound No. 14, [(1R)-1-[(2-phenylacetyl)amino]-2-(p-tolyl)ethyl]boronic acid]
15 | 50 to 500 nM | ++++ (70 ≤ Selectivity < 100) | < 50 nM | COc1cccc(CC(=O)N[C@@H](Cc2coc3ccccc23)B(O)O)c1 [Compound No. 15, [(1R)-2-(benzofuran-3-yl)-1-[[2-(3-methoxyphenyl)acetyl]amino]ethyl]-boronic acid]
16 | 500 to 5000 nM | ++ (10 ≤ Selectivity < 50) | 50 to 500 nM | Cc1ccc(C[C@H](NC(=O)[C@H](O)c2ccccc2)B(O)O)cc1 [Compound No. 16, [(1R)-1-[[(2R)-2-hydroxy-2-phenyl-acetyl]amino]-2-(p-tolyl)ethyl]-boronic acid]
17 | > 5000 nM | ++ (10 ≤ Selectivity < 50) | 50 to 500 nM | Cc1ccc(C[C@H](NC(=O)[C@@H](O)c2ccccc2)B(O)O)cc1 [Compound No. 17, [(1R)-1-[[(2S)-2-hydroxy-2-phenyl-acetyl]amino]-2-(p-tolyl)ethyl]-boronic acid]
18 | 50 to 500 nM | ++ (10 ≤ Selectivity < 50) | < 50 nM | O=C(Cc1cnccn1)N[C@@H](Cc1coc2ccccc12)B(O)O [Compound No. 18, [(1R)-2-(benzofuran-3-yl)-1-[(2-pyrazin-2-ylacetyl)amino]ethyl]boronic acid]
19 | 500 to 5000 nM | +++ (50 ≤ Selectivity < 70) | < 50 nM | O=C(Cc1ccncc1)N[C@@H](Cc1coc2ccccc12)B(O)O [Compound No. 19, [(1R)-2-(benzofuran-3-yl)-1-[[2-(4-pyridyl)acetyl]amino]ethyl]boronic acid]
20 | 50 to 500 nM | ++ (10 ≤ Selectivity < 50) | < 50 nM | O=C(Cc1ncccn1)N[C@@H](Cc1coc2ccccc12)B(O)O [Compound No. 20, [(1R)-2-(benzofuran-3-yl)-1-[(2-pyrimidin-2-ylacetyl)amino]ethyl]-boronic acid]
21 | > 5000 nM | ++ (10 ≤ Selectivity < 50) | < 50 nM | CC(=O)Nc1ccc(CC(=O)N[C@@H](Cc2ccc(C)cc2)B(O)O)cc1 [Compound No. 21, [(1R)-1-[[2-(4-acetamidophenyl)acetyl]amino]-2-(p-tolyl)ethyl]boronic acid]
22 | 50 to 500 nM | ++++ (70 ≤ Selectivity < 100) | < 50 nM | O=C(Cc1cc(F)c(F)c(F)c1)N[C@@H](Cc1coc2ccccc12)B(O)O [Compound No. 22, [(1R)-2-(benzofuran-3-yl)-1-[[2-(3,4,5-trifluorophenyl)acetyl]amino]-ethyl]boronic acid]
23 | 500 to 5000 nM | +++++ (Selectivity ≥ 100) | < 50 nM | O=C(N[C@@H](Cc1coc2ccccc12)B(O)O)C(F)(F)c1ccccc1 [Compound No. 23, [(1R)-2-(benzofuran-3-yl)-1-[(2,2-difluoro-2-phenyl-acetyl)amino]-ethyl]boronic acid]
24 | 500 to 5000 nM | +++++ (Selectivity ≥ 100) | < 50 nM | O=C(Cc1ccccc1C(F)(F)F)N[C@@H](Cc1coc2ccccc12)B(O)O [Compound No. 24, [(1R)-2-(benzofuran-3-yl)-1-[[2-[2-(trifluoromethyl)phenyl]acetyl]-amino]ethyl]boronic acid]
25 | 500 to 5000 nM | ++++ (70 ≤ Selectivity < 100) | < 50 nM | O=C(Cc1c(Cl)cccc1Cl)N[C@@H](Cc1coc2ccccc12)B(O)O [Compound No. 25, [(1R)-2-(benzofuran-3-yl)-1-[[2-(2,6-dichlorophenyl)acetyl]amino]-ethyl]boronic acid]
26 | 50 to 500 nM | +++++ (Selectivity ≥ 100) | – | CC(=O)Nc1ccc(CC(=O)N[C@@H](Cc2coc3ccccc23)B(O)O)cc1 [Compound No. 26, [(1R)-1-[[2-(4-acetamidophenyl)acetyl]amino]-2-(benzofuran-3-yl)ethyl]boronic acid]
27 | – | +++++ (Selectivity ≥ 100) | – | CCO[C@@H](C(=O)N[C@@H](Cc1coc2ccccc12)B(O)O)c1ccccc1 [Compound No. 70, [(1R)-2-(benzofuran-3-yl)-1-[[(2R)-2-ethoxy-2-phenyl-acetyl]amino]-ethyl]boronic acid]
28 | – | – | 50 to 500 nM | COc1ccc(CC(=O)N[C@@H](C[C@H]2COc3ccccc32)B(O)O)cc1 [Compound No. 122, [(1R)-2-[(3R)-2,3-dihydrobenzofuran-3-yl]-1-[[2-(4-methoxyphenyl)-acetyl]amino]ethyl]boronic acid]
